Legend:
Arabidopsis root hairs = test: Root hair number and length quantification; assay type: in vivo, Arabidopsis thaliana
Protocol: (§1) All Arabidopsis plant experiments were performed using the Arabidopsis thaliana Columbia-0 background. The Arabidopsis pSPX1::GUS line is described in the Plant Journal 2008, 54: 965-975. For rice, the cultivar Nipponbare was used. For maize, the cultivars DKC 2931 and B104 were used for regular pot experiments and sand-based pot experiments, respectively. For soybean, the cultivar Primus was used. […] The medium was solidified due to the addition of 0.6% Gelrite, unless stated otherwise. In case of vertical plates (root length and root hair measurements), the medium was supplied with 0.5% of sucrose and 1 μM (low phosphate, 1 μM KH2PO4, 9.9 mM KCl), 10 μM (low phosphate 10 μM KH2PO4, 9.9 mM KCl) or 1.25 mM KH2PO4 (high phosphate). Arabidopsis seeds were stratified for 2 days at 4° C. before germination. Seedlings were germinated in climate-controlled growth chambers at 22° C. under continuous light (100 μmol m^−2 s^−1). Husked rice seeds were germinated on wetted Whatman paper for 2 days at 37° C. and then transferred to Sterivent boxes or square Petri dishes with solid medium. Maize and soybean seeds were wetted 24 hours at room temperature prior to sowing in pots.
Roots were imaged using a stereomicroscope or a VHX-6000. Number and length of the root hairs parallel to the medium surface was determined at 4 to 6 mm above the root meristem. Root hair length was measured using the ImageJ software.

Maize DKC2931 = test: Long-term maize pot experiment, DKC2931 (PHENOVISION); assay type: in vivo, maize cultivar DKC 2931
Protocol: (§2) Regular Arabidopsis, soybean and maize pot experiments used an unfertilized potting soil, which was supplemented at the start of the experiment with 50 ml H2O containing 0.25 g/l NH4NO3 and 0.44 g/l (high phosphate) or no (maize and soybean) or 0.11 g/l KH2PO (Arabidopsis) for low phosphate conditions. For the sand-based maize pot experiment, sand was supplemented with 50 ml H2O containing 0.25 g/l NH4NO3 and 0.38 g/l (high phosphate) or 0.02 g/l (low phosphate) KH2PO4. Potassium was balanced via addition of KCl. Compound concentration was 10 μM, calculated based on the total water content after watering, and was added at the start of the experiment (Arabidopsis) or once a week (maize). Indexed chlorophyll contents were received via a SPAD 502 Plus Chlorophyll Meter. All parameters in the sand experiment, except the rate of leaf 4 (measured the first 4 days after emergence), were measured 19 days after sowing. Measurements in the pot experiments with potting soil were done after 4 weeks of growth, except for leaf 5, which was measured at 26 days. One long-term maize pot experiment was conducted with the DKC 2931 (2.5 months) and B104 (3 months) cultivars on the PHENOVISION phenotyping platform as described in Frontiers in Plant Science 2021, 12: 640914, except that an unfertilized potting soil was used and that plants were fertilized with a low-phosphate Hoagland solution. The 2.5× overconcentrated low-phosphate Hoagland solution contained 0.034 g/l KH2PO and 200 mL of this solution was applied twice a week. 1.4 mL of a 10 mM compound solution was added each two weeks to each pot, corresponding to 9.6 mg/g nutrients. 13 plants per condition were used. During the experiment, pictures were taken twice a week for each plants from 6 different angles and the top. Pictures were used to extract the plant height and to extract the projected plant area from each side and calculate an estimated plant volume over time.

Maize = test: Sand-based maize pot experiment; assay type: in vivo, maize cultivar B104; settings: low phosphate
Protocol: as §1
as §2, with “1.4 mL of a 10 mM compound solution was added each two weeks to each pot, corresponding to 9.6 mg/g nutrients. 13 plants per condition were used. During the experiment, pictures were taken twice a week for each plants from 6 different angles and the top. Pictures were used to extract the plant height and to extract the projected plant area from each side and calculate an estimated plant volume over time.” left out

Soybean = Soybean pot experiment; assay type: in vivo, soybean cultivar Primus; settings: low phosphate, 10 μM, 4 weeks
Protocol: All Arabidopsis plant experiments were performed using the Arabidopsis thaliana Columbia-0 background. The Arabidopsis pSPX1::GUS line is described in the Plant Journal 2008, 54: 965-975. For rice, the cultivar Nipponbare was used. For maize, the cultivars DKC 2931 and B104 were used for regular pot experiments and sand-based pot experiments, respectively. For soybean, the cultivar Primus was used. […] The medium was solidified due to the addition of 0.6% Gelrite, unless stated otherwise. […]
Regular Arabidopsis, soybean and maize pot experiments used an unfertilized potting soil, which was supplemented at the start of the experiment with 50 ml H2O containing 0.25 g/l NH4NO3 and 0.44 g/l (high phosphate) or no (maize and soybean) or 0.11 g/l KH2PO (Arabidopsis) for low phosphate conditions. […] Compound concentration was 10 μM, calculated based on the total water content after watering, and was added at the start of the experiment (Arabidopsis) or once a week (maize). […] All parameters in the sand experiment, except the rate of leaf 4 (measured the first 4 days after emergence), were measured 19 days after sowing. Measurements in the pot experiments with potting soil were done after 4 weeks of growth, except for leaf 5, which was measured at 26 days. […]

Work on CC1CN(CC(=O)c2c(N)n(C)c(=O)n(C)c2=O)c2ccccc2O1 (stereo not shown) [Compound 8, 6-amino-1,3-dimethyl-5-[2-(2-methyl-2,3-dihydro-1,4-benzoxazin-4-yl)acetyl]pyrimidine-2,4-dione] yielded an activity at 0.6 µM (Arabidopsis root hairs; Arabidopsis thaliana, 0.6 μM, read-out: Total root hair length per root (in % compared to the control)) of 104%, an activity at 1.25 µM (Arabidopsis root hairs; Arabidopsis thaliana, 1.25 μM, read-out: Total root hair length per root (in % compared to the control)) of 333% and an activity at 2.5 µM (Arabidopsis root hairs; Arabidopsis thaliana, 2.5 μM, read-out: Total root hair length per root (in % compared to the control)) of 347%. The activity at 5 µM (Arabidopsis root hairs; Arabidopsis thaliana, 5 μM, read-out: Total root hair length per root (in % compared to the control)) was 485%, the activity at 10 µM (Arabidopsis root hairs; Arabidopsis thaliana, 10 μM, read-out: Total root hair length per root (in % compared to the control)) was 586% and the “Average root hair length per root in high phosphate conditions” value (Arabidopsis root hairs; Arabidopsis vertical plate, high phosphate, control 0.11) was 0.32 mm. For the same compound, the “Root hair number in high phosphate conditions (one plane in 2 mm region)” value (Arabidopsis root hairs; Arabidopsis vertical plate, high phosphate, control 3) was 9, the “Total root hair length per root in high phosphate conditions” value (Arabidopsis root hairs; Arabidopsis vertical plate, high phosphate, control 57) was 183 cm and the Plant height (Maize DKC2931; DKC2931, day 15, control 288) was 297 mm. The Estimated volume (Maize DKC2931; DKC2931, day 15, control 361) was 393 cm^3, the Plant height (Maize DKC2931; DKC2931, day 19, control 352) was 368 mm and the Estimated volume (Maize DKC2931; DKC2931, day 19, control 576) was 763 cm^3. It also gave a Plant height (Maize DKC2931; DKC2931, day 22, control 335) of 372 mm, an Estimated volume (Maize DKC2931; DKC2931, day 22, control 843) of 1104 cm^3 and a Plant height (Maize DKC2931; DKC2931, day 26, control 378) of 452 mm. The Estimated volume (Maize DKC2931; DKC2931, day 26, control 1145) was 1646 cm^3, the Plant height (Maize DKC2931; DKC2931, day 27, control 352) was 460 mm and the Estimated volume (Maize DKC2931; DKC2931, day 27, control 1086) was 1826 cm^3. For the same compound, the Plant height (Maize DKC2931; DKC2931, day 29, control 399) was 471 mm, the Estimated volume (Maize DKC2931; DKC2931, day 29, control 1581) was 2187 cm^3 and the Plant height (Maize DKC2931; DKC2931, day 33, control 424) was 553 mm. It also gave an Estimated volume (Maize DKC2931; DKC2931, day 33, control 2272) of 3213 cm^3, a Plant height (Maize DKC2931; DKC2931, day 36, control 531) of 634 mm and an Estimated volume (Maize DKC2931; DKC2931, day 36, control 2854) of 3881 cm^3. The Plant height (Maize DKC2931; DKC2931, day 40, control 578) was 694 mm, the Estimated volume (Maize DKC2931; DKC2931, day 40, control 3872) was 5092 cm^3 and the Plant height (Maize DKC2931; DKC2931, day 43, control 655) was 756 mm. It also gave an Estimated volume (Maize DKC2931; DKC2931, day 43, control 4240) of 5538 cm^3, a Plant height (Maize DKC2931; DKC2931, day 47, control 732) of 799 mm and an Estimated volume (Maize DKC2931; DKC2931, day 47, control 4988) of 6770 cm^3. For the same compound, the Plant height (Maize DKC2931; DKC2931, day 50, control 777) was 844 mm, the Estimated volume (Maize DKC2931; DKC2931, day 50, control 5718) was 7419 cm^3 and the Plant height (Maize DKC2931; DKC2931, day 54, control 562) was 652 mm. The Estimated volume (Maize DKC2931; DKC2931, day 54, control 6325) was 8086 cm^3, the Plant height (Maize DKC2931; DKC2931, day 57, control 678) was 894 mm and the Estimated volume (Maize DKC2931; DKC2931, day 57, control 6295) was 7681 cm^3. The Plant height (Maize DKC2931; DKC2931, day 61, control 893) was 1021 mm, the Estimated volume (Maize DKC2931; DKC2931, day 61, control 6047) was 7458 cm^3 and the Plant height (Maize DKC2931; DKC2931, day 63, control 811) was 880 mm. The Estimated volume (Maize DKC2931; DKC2931, day 63, control 5546) was 6642 cm^3, the Plant height (Maize DKC2931; DKC2931, day 68, control 849) was 895 mm and the Estimated volume (Maize DKC2931; DKC2931, day 68, control 4292) was 4967 cm^3. It also gave a Plant height (Maize DKC2931; DKC2931, day 71, control 856) of 916 mm, an Estimated volume (Maize DKC2931; DKC2931, day 71, control 4022) of 4807 cm^3 and a Plant height (Maize DKC2931; DKC2931, day 75, control 798) of 903 mm. The Estimated volume (Maize DKC2931; DKC2931, day 75, control 3778) was 4587 cm^3, the “Average number of ears” value (Maize DKC2931; Maize pot long term DKC2931, 2.5 months, low phosphate, control 1) was 1 and the Shoot weight (Maize DKC2931; Maize pot long term DKC2931, low phosphate, control 27) was 33 g. The “Leaf 6” value (Maize DKC2931; Maize pot long term DKC2931, low phosphate, control 53) was 58 cm, the Plant height (Maize; 10 μM once a week, 19 days after sowing, control 21) was 28 cm and the Indexed chlorophyll content (Maize; 19 days after sowing, SPAD, control 28) was 32. The Crown root number (Maize; 19 days after sowing, control 2) was 7, the “Growth rate of leaf 4” value (Maize; first 4 days after emergence, control 2.04) was 2.46 cm/day and the Biomass (Soybean; control 4.1) was 4.4 g. For the same compound, the Plant height (Soybean; control 50) was 55 cm.

Reference: patent US20240206469A1, “PHOSPHORUS USE EFFICIENCY ENHANCERS AS PLANT GROWTH PROMOTORS” (EUROCHEM ANTWERPEN, priority 2021, published 2024)
